Experimental data taken from patent publication US8685934B2, “Methods for treating extreme insulin resistance in patients resistant to previous treatment with other anti-diabetic drugs employing an SGLT2 inhibitor and compositions thereof” (Bristol-Myers Squibb Company, priority 2009, dated 2014).
Like-named read-outs stand apart in the source and are kept apart here.

Test system: highly insulin-resistant T2DM patients poorly controlled with insulin plus metformin and/or thiazolidinediones
Conditions: for Postprandial glucose, change from baseline, mean (95% CI): 120 minutes by OGTT; for Fasting plasma glucose, change from baseline, mean (95% CI) / HbA1c, change from baseline, mean (95% CI) / Weight, change from baseline, mean (95% CI) / Total daily insulin dose, change from baseline, mean (95% CI): ANCOVA-adjusted; for Patients with HbA1c < 7.0%, No., response / Patients with ↓ HbA1c ≧ 0.5%, No., response: of 23 patients; for HbA1c, mean (SD), End of Double-blind (Week 12 LOCF): Cohort 2; for Patients who required up-titration of insulin: throughout the 12-week double-blind period, placebo arm 4 patients; for Patients exposed to study medication for ≧84 days prior to insulin up-titration: versus 39.1% in the placebo arm
Protocol: Criteria for management of hyperglycemia were determined by fasting plasma glucose (FPG) measurements. For any FPG level >240 mg/dL at weeks 4 and 6, >220 mg/dL at week 8, or >200 mg/dL at week 10, the patient would be scheduled for a follow-up visit in 3 to 5 days. If FPG was still above the threshold at follow-up, a visit was scheduled in order to increase the insulin dose as clinically indicated. Patients who further lacked glycemic control despite up-titration, or whose modified insulin dose exceeded baseline, were discontinued from blinded treatment and entered into follow-up.
All patients were on insulin-sensitizer therapy for at least 6 weeks prior to enrollment and insulin-based therapy for at least 12 weeks prior to enrollment. The study protocol defined insulin-sensitizer therapy as metformin (stable dose ≧1000 mg) and/or pioglitazone (stable dose ≧30 mg) or rosiglitazone (stable dose 4 mg). Insulin-based therapy was defined as subcutaneous insulin for at least 12 weeks prior to enrollment, with 2 minimum insulin daily dose equivalent to 50 units (median 85 to 93 units across all study arms) of U100 insulin per day. The insulin regimen must have been stable for at least 6 weeks. In addition to 10 mg dapagliflozin or 20 mg dapagliflozin daily or placebo, 74.6% of patients received metformin (≧1000 mg daily) plus insulin; 16.9% of patients received metformin (≧1000 mg daily) plus pioglitazone (≧30 mg daily) or rosiglitazone (4 mg daily) plus insulin and 8.5% of patients received pioglitazone (≧30 mg daily) or rosiglitazone (4 mg daily) plus insulin.
Patients in Cohort 1 were evaluated for safety only. Patients in Cohort 2 were evaluated for safety and efficacy. The primary efficacy measure was change from baseline in HbAlc, at week 12, last observation carried forward (LOCF). If no week 12 assessment was available, the last observation prior to week 12 was used. Secondary efficacy measures included changes from baseline at week 12 (LOCF) in FPG and insulin dose, the proportion of patients achieving a decrease in HbAlc>0.5% from baseline at week 12 (LOCF), and the proportion of patients achieving HbAlc<7% at week 12 (LOCF). Tertiary endpoints included changes from baseline in total body weight and in postprandial glucose (PPG) measured by an oral glucose tolerance test (OGTT).
Patients in Cohort 2 were evaluated for safety and efficacy. The primary efficacy measure was change from baseline in HbAlc at week 12, last observation carried forward (LOCF). The analysis was done excluding data after up-titration of insulin. If no week 12 assessment was available, the last observation prior to week 12 was used.
For Cohort 2, the sample size target of 22 patients per treatment group was chosen to allow for the calculation of 95% confidence intervals for the primary endpoint with a half-width of 0.42% for each treatment group. This assumed a 1% standard deviation for the primary endpoint in each of the dapagliflozin and placebo arms. With the same assumption, the half-width of a 95% confidence interval for the difference between any two treatment mean changes was estimated to be 0.59%. The primary efficacy data set consisted of all randomized patients who took at least one dose of double-blind study medication during the treatment phase. The analyses of the efficacy variables (except change from baseline in insulin dose) were done excluding data after up-titration of insulin. The analyses for changes from baseline in HbAlc, FPG, insulin dose, and total body weight at week 12 (LOCF) were performed using an analysis of covariance (ANCOVA) model with treatment group as an effect and baseline value as a covariate. Point estimates and 95% confidence intervals were calculated for mean changes within each treatment group and for differences in mean changes between the dapagliflozin and placebo groups.

[1] = Dapagliflozin 10 mg + insulin + OAD, week 12 LOCF
[2] = Dapagliflozin 10 mg + insulin + OAD, week 12 LOCF, excludes data after insulin up-titration
[3] = Dapagliflozin 10 mg + insulin + OAD, week 12 LOCF, excludes data after insulin up-titration, listed as dapagliflozin
[4] = Dapagliflozin 20 mg + insulin + OAD, excludes data after insulin up-titration
[5] = Dapagliflozin 20 mg + insulin + OAD, week 12 LOCF
[6] = Dapagliflozin 20 mg + insulin + OAD, week 12 LOCF, excludes data after insulin up-titration
[7] = Dapagliflozin 20 mg + insulin + OAD, week 12 LOCF, excludes data after insulin up-titration, listed as dapagliflozin

## CCOc1ccc(Cc2cc([C@@H]3O[C@H](CO)[C@@H](O)[C@H](O)[C@H]3O)ccc2Cl)cc1 [Dapagliflozin, (2S,3R,4R,5S,6R)-2-(4-chloro-3-(4-ethoxybenzyl)phenyl)-6-(hydroxymethyl)tetrahydro-2H-pyran-3,4,5-triol]
[1]
  Patients with ↓ HbA1c ≧ 0.5%, difference in proportions vs placebo + insulin + OAD (95% CI): 49.4 (20.1 to 72.4) %
  Total daily insulin dose change from baseline, difference vs placebo + insulin + OAD, mean (95% CI): −3.1 (−10.7 to 4.6) U
  Weight change from baseline, difference vs placebo + insulin + OAD, mean (95% CI): −2.6 (−4.0 to −1.2) kg
[2]
  Postprandial glucose, change from baseline, mean (95% CI): −34.3 (−67.5 to −1.1) mg/dL
  Fasting plasma glucose, change from baseline, mean (95% CI): 2.4 (−13.6 to 18.3) mg/dL
  HbA1c, change from baseline, mean (95% CI): −0.61 (−0.87 to −0.36) %
  Weight, change from baseline, mean (95% CI): −4.5 (−5.5 to −3.5) kg
  Patients with HbA1c < 7.0%, (%), response: 13.0%
  Patients with ↓ HbA1c ≧ 0.5%, (%), response: 65.2%
  Patients with HbA1c < 7.0%, No., response: 3
  Patients with ↓ HbA1c ≧ 0.5%, No., response: 15
[3]
  Fasting plasma glucose, change from baseline, mean (95% CI): 2.4 mg/dL
  Weight, change from baseline, mean (95% CI): -4.5 kg
Dapagliflozin 10 mg + insulin + OAD, week 12 LOCF, includes data after insulin up-titration
  Total daily insulin dose, change from baseline, mean (95% CI): −1.4 (−6.6 to 3.9) U
Dapagliflozin 10 mg + insulin + OAD, week 12 LOCF, listed as dapagliflozin
  HbA1c change from baseline, difference vs placebo + insulin + OAD, mean (95% CI): −0.70%
Dapagliflozin 10 mg once daily + insulin (50% of usual dose) + OAD, excludes data after insulin up-titration
  HbA1c, mean (SD), End of Double-blind (Week 12 LOCF): 7.8 (0.7) %
[4]
  Fasting plasma glucose, mean (SD), End of Double-blind (Week 12 LOCF): 149.4 (32.0) mg/dL
  Weight, mean (SD), End of Double-blind (Week 12 LOCF): 97.8 (14.1) kg
Dapagliflozin 20 mg + insulin + OAD, includes data after insulin up-titration, U = units of U100 insulin
  Total daily insulin dose, mean (SD), End of Double-blind (Week 12 LOCF): 53.5 (32.1) U
Dapagliflozin 20 mg + insulin + OAD, measured at 120 minutes by OGTT, excludes data after insulin up-titration
  Postprandial glucose, mean (SD), End of Double-blind (Week 12 LOCF): 272.6 (51.2) mg/dL
[5]
  Fasting plasma glucose change from baseline, difference vs placebo + insulin + OAD, mean (95% CI): −27.4 (−50.3 to −4.6) mg/dL
  HbA1c change from baseline, difference vs placebo + insulin + OAD, mean (95% CI): −0.78 (−1.16 to −0.40) %
  Patients with ↓ HbA1c ≧ 0.5%, difference in proportions vs placebo + insulin + OAD (95% CI): 49.4 (20.1 to 72.4) %
  Total daily insulin dose change from baseline, difference vs placebo + insulin + OAD, mean (95% CI): −2.5 (−10.2 to 5.1) U
  Weight change from baseline, difference vs placebo + insulin + OAD, mean (95% CI): −2.4 (−3.8 to −1.0) kg
[6]
  Postprandial glucose, change from baseline, mean (95% CI): −41.9 (−74.8 to −8.9) mg/dL
  Fasting plasma glucose, change from baseline, mean (95% CI): −9.6 (−25.6 to 6.3) mg/dL
  HbA1c, change from baseline, mean (95% CI): −0.69 (−0.94 to −0.43) %
  Weight, change from baseline, mean (95% CI): −4.3 (−5.3 to −3.3) kg
  Patients with HbA1c < 7.0%, (%), response: 4.3%
  Patients with ↓ HbA1c ≧ 0.5%, (%), response: 65.2%
  Patients with HbA1c < 7.0%, No., response: 1
  Patients with ↓ HbA1c ≧ 0.5%, No., response: 15
[7]
  Fasting plasma glucose, change from baseline, mean (95% CI): -9.6 mg/dL
  Weight, change from baseline, mean (95% CI): -4.3 kg
Dapagliflozin 20 mg + insulin + OAD, week 12 LOCF, includes data after insulin up-titration
  Total daily insulin dose, change from baseline, mean (95% CI): −0.8 (−6.1 to 4.5) U
Dapagliflozin 20 mg + insulin + OAD, week 12 LOCF, listed as dapagliflozin
  HbA1c change from baseline, difference vs placebo + insulin + OAD, mean (95% CI): −0.78%
Dapagliflozin 20 mg once daily + insulin (50% of usual dose) + OAD, excludes data after insulin up-titration
  HbA1c, mean (SD), End of Double-blind (Week 12 LOCF): 7.8 (0.6) %
Dapagliflozin 10 mg arm (n = 24)
  Patients who required up-titration of insulin: 1 patient
Dapagliflozin 10 mg arm
  Patients exposed to study medication for ≧84 days prior to insulin up-titration: 66.7%
Dapagliflozin 20 mg arm (n = 24)
  Patients who required up-titration of insulin: 3 patients
Dapagliflozin 20 mg arm
  Patients exposed to study medication for ≧84 days prior to insulin up-titration: 66.7%
Dapagliflozin treatment (dose not distinguished), insulin dose reduced by 50%
  Additional weight loss compared to placebo: -2.5 kg
insulin-resistant patients who had their baseline insulin reduced 50%
  HbAlc, PPG and weight versus placebo, in words: decreased HbAlc, PPG and weight more than placebo
Week 12 (LOCF)
  Weight lowering versus placebo, in words: more likely to lower weight than placebo
